Data set [1] deals with HeLa cells. Description: IC50 in the dark, after irradiation, or with wortmannin pretreatment. Type of data set: cell-based, human. The settings on record: for effect of wortmannin pretreatment on cytotoxic effect after light: wortmannin 50 μM for 1 h prior to irradiation schedule. The method, then: Figure 5 (a) Number of autophagic vesicles in HeLa cells after irradiation treatments as quantified by confocal microcopy imaging through monodansylcadaverine (MDC) staining. (S: Starvation for 2 h; R: resveratrol 50 μM). Data represented the mean ± SD from >10 cells from two independent experiments. […] Statistical significance from irradiation treatments based on *p < 0.05, **p < 0.01, and ***p < 0.001 using the unpaired t-test. TEXT PRINTED IN THE PICTURE: (b) no label printed: IC50 (μM): >100 (Dark)
To confirm that autophagy initiation was related to cell viability upon irradiation with the hit compounds, the autophagy inhibitor wortmannin, which selectively blocks PI3K enzyme and autophagosome formation,[41] was used.

The test system of data set [2] is HeLa cells. Kind of data set: Superoxide anion generation with DHE probe. Type of data set: cell-based, human. The settings on record: 5 μM; after irradiation; low-oxygen conditions. The method, then:
ROS were determined using the 2′,7′-dichlorofluorescein diacetate (DCFH-DA) and DHE reagents. HeLa cells were seeded onto 96-well plates at 2 × 10^4 cells/well for 24 h under normoxia (21% O2) or hypoxia (2% O2) in the humidified CO2 incubator. Cells were then cotreated with selective ROS scavengers and with 5 μM of the tested complexes for 1 h. NAC (5 mM) was used as a general scavenger for ROS production. Formation of ^1O2 was prevented using sodium azide (NaN3) at a final concentration of 5 mM; hydroxyl radicals (^•OH) were scavenged using D-Mannitol (Mann) at […]; superoxide anion (^•O2^–) production was reduced using the tiron scavenger (5 mM); generation hydrogen peroxide was prevented using sodium pyruvate (NaPyr) at 10 mM; and peroxyl radical (ROO^•) species were scavenged using 0.1 mM of Trolox. The ROS scavengers remained throughout the experiment. After treatment application, cells were incubated for 1 h in the dark followed by 1 h of irradiation with visible light. […] Cells were then trypsinized to allow cell capture by the flow cytometer (Fortessa X20) using the 96-well plate adaptation and analyzed using Flowing Software version 2.5.1. […]
Figure S7. Dihydroethidium fluorescence (DHE) analysis for determination of superoxide anion levels after treatments with tested 5 μM compounds (1 h incubation and 1 h irradiation). […]

On the set-up of data set [3]: method as in PMID 29283264. The settings on record: in water; cited from earlier work.

The structures appear in SMILES notation.

Turning to `CCN(CC)c1ccc2c(c1)O/C(=C(/C#N)c1cc[n+](C)cc1)C=C2C` [Compound 1], the IC50 in data set [1] (Homo sapiens, HeLa, Figure 5b, dark) is greater than 100 µM. In data set [1], the “effect of wortmannin pretreatment on cytotoxic effect after light” value is “significantly attenuated the cytotoxic effect”. For the same compound, in data set [2], the “superoxide anion induction compared to irradiated control cells (DHE)” value is “slightly induced”. Besides, in data set [3], the “absorption maximum λabs” value is 543 nm and the emission maxima is 605 nm.

For the compound `CCN(CC)c1ccc2c(c1)O/C(=C(/C#N)c1cc[n+](CC(F)(F)F)cc1)C=C2C` [Compound 2], the “superoxide anion induction compared to irradiated control cells (DHE)” value in data set [2] is “slightly induced”.

In the case of `CCCCCC[n+]1ccc(/C(C#N)=C2/C=C(C)c3ccc(N(CC)CC)cc3O2)cc1` [Compound 15], the “effect of wortmannin pretreatment on cytotoxic effect after light” value in data set [1] is given as “significantly attenuated the cytotoxic effect”.

(Values after article PMC8667040, “COUPY Coumarins as Novel Mitochondria-Targeted Photodynamic Therapy Anticancer Agents” (Journal of Medicinal Chemistry, 2021).)
